Data taken from US12600728B2, “Interleukin-17 inhibitors” (priority 2020, dated 2026).
Read-outs that look alike come from different tables or passages of the source.

Key:
[1] = target: recombinant human IL-17AA (Homo sapiens, UniProt Q16552); assay: IL-6 release from NHDF cells, IL-17AA plus TNF-α stimulation; format: cell-based; conditions: 24 hours, IL-6 by ELISA
Method: IL-6 Release from NHDF Cells (Normal Human Dermal Fibroblasts)
NHDF cells isolated from normal adult mesoderm, connective tissues were cultured in fibroblast growth medium containing 2% supplement. […] The cells were allowed to adhere overnight before they were incubated with the compound/cytokine cocktail.
Diluted compounds were pre-incubated with recombinant human IL-17AA or IL-17AF plus human TNF-α for 30 minutes at room temperature on a shaker. […] The cells were incubated with the compound/cytokines cocktail for 24 hours at 37° C. (5% CO2). […] The final DMSO or plasma concentrations were 0.1% or 20%, respectively. All compound incubations were done in duplicate. The supernatants were collected to quantify IL-6 by ELISA according to the manufacturers instructions. The optical density was measured at 450 nm by an EnVision Multilabel Plate Reader (Perkin Elmer). The IL-6 levels produced after TNF-α stimulation were subtracted from the IL-6 produced after IL-17/TNF-α co-stimulation. These IL-17-specific IL-6 concentrations were used for […] value calculation.

[2] = target: biotinylated human IL-17A / AF647-labeled human IL-17RA (Homo sapiens, UniProt Q16552); assay: Human IL-17A×IL-17RA TR-FRET assay; format: binding
Method: Human IL-17A×IL-17RA TR-FRET Assay
Each compound concentration is tested in duplicate.
The final total assay volume is 10 μL.
Each plate contains test compounds in columns 1-22 and controls in columns 23 and 24. The neutral control (NC) contains all the assay components, but DMSO instead of test compound. […] The fluorescence values for emission at 615 nm and 665 nm are loaded to the evaluation software Helios.
From the activity data at each compound concentration, the IC50 values are obtained using the 4-parameter logistic function (“Hill-slope model”) of Helios.

[3] = NHDF cells, IL-17AA 30 pM plus TNF-α 6 pM, read-out: IL17AA + TNF IC50 IL-6
[4] = TR-FRET, biotinylated human IL-17A 5 nM, AF647-labeled human IL-17RA 30 nM, read-out: IL17AA FRET/ IL17Rawt IC50
[5] = NHDF cells, IL-17AA 30 pM + TNF-α 6 pM, read-out: IL17AA + TNF IC50 IL-6
[6] = TR-FRET, 5 nM IL-17A, 30 nM IL-17RA, read-out: IL17AA FRET/ IL17Rawt IC50
[7] = IL17AA + TNF IC50 IL-6, NHDF cells, IL-17AA 30 pM plus TNF-α 6 pM
[8] = IL17AA FRET/ IL17Rawt IC50, TR-FRET, biotinylated human IL-17A 5 nM, AF647-labeled human IL-17RA 30 nM

Chain of biotinylated human IL-17A / AF647-labeled human IL-17RA (Q16552 24-155): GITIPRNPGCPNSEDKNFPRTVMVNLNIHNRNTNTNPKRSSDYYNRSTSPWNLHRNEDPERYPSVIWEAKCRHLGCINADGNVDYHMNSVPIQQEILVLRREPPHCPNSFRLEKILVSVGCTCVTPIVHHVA
Chain of recombinant human IL-17AA (Q16552 24-155): as above

Structure (SMILES)	IC50 [1, 3]	IC50 [2, 4]	further results
Cc1c(-c2ccc(NC(=O)C(NC(=O)c3ccnn3C)C3CCCC(F)(F)C3)cc2)c(Cl)cc[n+]1[O-] (stereo not drawn) [Example 160, 4-chloro-3-(4-(2-(3,3-difluorocyclohexyl)-2-(1-methyl-1H-pyrazole-5-carboxamido)acetamido)phenyl)-2-methylpyridine 1-oxide]	–	–	IC50 ([1]; IL17AA + TNF IC50 IL-6, NHDF cells, IL-17AA 30 pM + TNF-α 6 pM): 52.3 nM; IC50 ([2]; IL17AA FRET/ IL17Rawt IC50, TR-FRET, 5 nM IL-17A, 30 nM IL-17RA): 89.5 nM
Cc1cc[n+]([O-])c(C)c1-c1ccc(NC(=O)[C@@H](NC(=O)c2ccnn2C)C2CCC(F)(F)CC2)cc1F [Example 109, 3-(4-((S)-2-(4,4-difluorocyclohexyl)-2-(1-methyl-1H-pyrazole-5-carboxamido)acetamido)-2-fluorophenyl)-2,4-dimethylpyridine 1-oxide]	84 nM	164 nM	–
Cc1cc[n+]([O-])c(Cl)c1-c1ccc(NC(=O)[C@@H](NC(=O)c2ccnn2C)C2CCCCC2)cc1 [Example 89, (S)-2-chloro-3-(4-(2-cyclohexyl-2-(1-methyl-1H-pyrazole-5-carboxamido)acetamido)phenyl)-4-methylpyridine 1-oxide]	83 nM	286 nM	–
CCn1nccc1C(=O)N[C@H](C(=O)Nc1ccc(-c2c(C(F)(F)F)cc[n+]([O-])c2C)cc1)C1CCC(F)(F)CC1 [Example 11, (S)-3-(4-(2-(4,4-difluorocyclohexyl)-2-(1-ethyl-1H-pyrazole-5-carboxamido)acetamido)phenyl)-2-methyl-4-(trifluoromethyl)pyridine 1-oxide]	20 nM	82 nM	–
Cc1nocc1C(=O)NC(C(=O)Nc1ccc(-c2c(Cl)cc[n+]([O-])c2C)cc1)C1CC2CC2C1 (single isomer, unassigned) [Example 181]	–	–	IC50 [1, 5]: 64 nM; IC50 [2, 6]: 54.8 nM
CCn1nccc1C(=O)NC(C(=O)Nc1ccc(-c2c(C)cc[n+]([O-])c2C)cc1)C1CCC(C(F)(F)F)CC1 [Example 7, 3-(4-((S)-2-(1-ethyl-1H-pyrazole-5-carboxamido)-2-((1r,4S)-4-(trifluoromethyl)cyclohexyl)acetamido)phenyl)-2,4-dimethylpyridine 1-oxide]	–	–	IC50 [1, 7]: 26 nM; IC50 [2, 8]: 46 nM
Cc1cc[n+]([O-])c(C)c1-c1ccc(NC(=O)[C@H](Cc2ccccc2)NC(=O)c2ccnn2C)cc1 [Example 75, (S)-2,4-dimethyl-3-(4-(2-(1-methyl-1H-pyrazole-5-carboxamido)-3-phenylpropanamido)phenyl)pyridine 1-oxide]	> 10000 nM	2640 nM	–
Cc1cc[n+]([O-])c(C)c1-c1ccc(NC(=O)[C@@H](NC(=O)c2ccnn2C)C2CCCCCC2)cc1 [Example 41, (S)-3-(4-(2-cycloheptyl-2-(1-methyl-1H-pyrazole-5-carboxamido)acetamido)phenyl)-2,4-dimethylpyridine 1-oxide]	9 nM	24 nM	–
Cc1c(-c2ccc(NC(=O)[C@@H](NC(=O)c3ccnn3C)C3CCC(F)(F)CC3)cc2F)c(Cl)cc[n+]1[O-] [Example 107, 4-chloro-3-(4-((S)-2-(4,4-difluorocyclohexyl)-2-(1-methyl-1H-pyrazole-5-carboxamido)acetamido)-2-fluorophenyl)-2-methylpyridine 1-oxide]	15 nM	19 nM	–
Cc1c(-c2ccc(NC(=O)C(NC(=O)c3ccnn3C)C3CCC(C)CC3)cc2F)c(Cl)cc[n+]1[O-] [Example 56, 4-chloro-3-(2-fluoro-4-((S)-2-(1-methyl-1H-pyrazole-5-carboxamido)-2-((1r,4S)-4-methylcyclohexyl)acetamido)phenyl)-2-methylpyridine 1-oxide]	–	–	IC50 [1, 7]: 4 nM; IC50 [2, 8]: 21 nM
Cc1cc[n+]([O-])c(C)c1-c1ccc(NC(=O)[C@@H](NC(=O)c2conc2C)C2CCC(F)(F)CC2)cc1 [Example 162, (S)-3-(4-(2-(4,4-difluorocyclohexyl)-2-(3-methylisoxazole-4-carboxamido)acetamido)phenyl)-2,4-dimethylpyridine 1-oxide]	–	–	IC50 [1, 5]: 44 nM; IC50 [2, 6]: 186 nM
Cc1cc[n+]([O-])c(C)c1-c1ccc(NC(=O)[C@@H](NC(=O)c2cn[nH]c2C(C)C)C2CCCCC2)cc1 [Example 157, (S)-3-(4-(2-cyclohexyl-2-(5-isopropyl-1H-pyrazole-4-carboxamido)acetamido)phenyl)-2,4-dimethylpyridine 1-oxide]	–	–	IC50 [1, 5]: 105 nM; IC50 [2, 6]: 170 nM
Cc1nocc1C(=O)NC(C(=O)Nc1ccc(-c2c(Cl)cc[n+]([O-])c2C)cc1)C1CC2CC2C1 (stereo not drawn) [Example 71, 3-(4-(2-(bicyclo[3.1.0]hexan-3-yl)-2-(3-methylisoxazole-4-carboxamido)acetamido)phenyl)-4-chloro-2-methylpyridine 1-oxide]	35 nM	86 nM	–
Cc1nocc1C(=O)N[C@H](C(=O)Nc1ccc(-c2cc(Cl)c[n+]([O-])c2C)c(F)c1)C1CCC(F)(F)CC1 [Example 172, (S)-5-chloro-3-(4-(2-(4,4-difluorocyclohexyl)-2-(3-methylisoxazole-4-carboxamido)acetamido)-2-fluorophenyl)-2-methylpyridine 1-oxide]	–	–	IC50 [1, 5]: 531 nM; IC50 [2, 6]: 596 nM
CCc1nocc1C(=O)N[C@H](C(=O)Nc1ccc(-c2c(C)cc[n+]([O-])c2C)cc1)[C@H]1CCCC(F)(F)C1 [Example 30, 3-(4-((S)-2-((S)-3,3-difluorocyclohexyl)-2-(3-ethylisoxazole-4-carboxamido)acetamido)phenyl)-2,4-dimethylpyridine 1-oxide]	12 nM	46 nM	–
Cc1c(-c2ccc(NC(=O)[C@@H](NC(=O)c3ccnn3C(C)C)C3CCCCC3)cc2F)ccc[n+]1[O-] [Example 82, (S)-3-(4-(2-cyclohexyl-2-(1-isopropyl-1H-pyrazole-5-carboxamido)acetamido)-2-fluorophenyl)-2-methylpyridine 1-oxide]	35 nM	85 nM	–
CC(=O)N1CCn2c(ccc2C(=O)N[C@H](C(=O)Nc2ccc(-c3c(C)c[n+]([O-])cc3C)cc2)C2CCCCCC2)C1 [Example 118, (S)-4-(4-(2-(2-acetyl-1,2,3,4-tetrahydropyrrolo[1,2-a]pyrazine-6-carboxamido)-2-cycloheptylacetamido)phenyl)-3,5-dimethylpyridine 1-oxide]	20 nM	183 nM	–
Cc1cc[n+]([O-])c(C)c1-c1ccc(NC(=O)C(NC(=O)c2conc2C)C(C)c2ccccc2Cl)cc1 (stereo not drawn) [Example 221, 3-(4-(3-(2-chlorophenyl)-2-(3-methylisoxazole-4-carboxamido)butanamido)phenyl)-2,4-dimethylpyridine 1-oxide]	–	–	IC50 [1, 5]: 264 nM; IC50 [2, 6]: 71.9 nM
Cc1cc[n+]([O-])c(C)c1-c1ccc(NC(=O)[C@@H](NC(=O)c2ccnn2C(C)C)C2CCCCCC2)cc1 [Example 40, (S)-3-(4-(2-cycloheptyl-2-(1-isopropyl-1H-pyrazole-5-carboxamido)acetamido)phenyl)-2,4-dimethylpyridine 1-oxide]	2 nM	25 nM	–
CCn1nccc1C(=O)N[C@H](C(=O)Nc1ccc(-c2c(Cl)cc[n+]([O-])c2C)cc1)C1CCC(F)(F)CC1 (single isomer, unassigned) [Example 13a]	11 nM	16 nM	–
Cc1cc[n+]([O-])c(C)c1-c1ccc(NC(=O)[C@@H](NC(=O)c2ccn3c2CNCC3)C2CCCCCC2)cc1 [Example 189, (S)-3-(4-(2-cycloheptyl-2-(1,2,3,4-tetrahydropyrrolo[1,2-a]pyrazine-8-carboxamido)acetamido)phenyl)-2,4-dimethylpyridine 1-oxide]	–	–	IC50 [1, 5]: 15.5 nM; IC50 [2, 6]: 118 nM
